Assay results: paper PMC12627933, “A First-In-Human Study of the SUMOylation Inhibitor Subasumstat in Patients with Advanced/Metastatic Solid Tumors or Relapsed/Refractory Hematologic Malignancies” (Cancer Research Communications, 2025)
“And” between values parts separate entries of the source, which are not always exact repeats. Equal entries are not always repeated.

Assay: Safety: treatment-emergent adverse events (NCI CTCAE v5.0; CRS per ASTCT), phase I/II study NCT03648372
Assay type: in vivo
Description: This study comprised two parts: a phase I dose escalation and a phase II dose expansion (Fig. 1). In the dose-escalation phase, patients were enrolled to receive subasumstat intravenously as a 1-hour (±10 minutes) infusion on days 1, 4, 8, and 11 of a 21-day cycle (biweekly schedule). […] Dose escalation was based on cohort with an adaptive design using Bayesian logistic regression modeling with overdose control. The starting dose of subasumstat was based on Good Laboratory Practice animal toxicity studies and supported by the estimation of a minimum anticipated biologically effective level. A detailed description of dose-limiting toxicities (DLT) is presented in the Supplementary Methods.
The phase II dose-expansion portion enrolled patients to receive the recommended phase II dose (RP2D) determined in phase I, with each cohort assessed separately using an adaptive two-stage design for a single proportion (see Supplementary Methods). For stage 1, each cohort was analyzed when a prespecified number of patients were enrolled and had the potential to have at least one posttreatment scan [i.e., after the first disease assessment, 2 months from cycle 1 day 1 (C1D1)]. If the prespecified minimal response rate was not achieved in the first stage for a given cohort, that cohort would be closed to enrollment. […] The final analysis of the primary endpoints for each cohort would take place when all ongoing patients had the opportunity to complete the 6-month disease assessment. Across both phases, patients received subasumstat for up to 1 year or until confirmed disease progression, unacceptable toxicity, if any withdrawal criterion from the study was met, or if discontinuation of subasumstat occurred.
The occurrence of DLTs was assessed during cycle 1 (DLTs are described in the Supplementary Methods). Treatment-emergent adverse events (TEAE) were graded according to NCI Common Terminology Criteria for Adverse Events version 5.0, except for cytokine release syndrome (CRS), which was graded according to the American Society for Transplantation and Cellular Therapy Consensus Grading for CRS ([20]).
It was anticipated that approximately 70 DLT-evaluable patients would be enrolled for dose escalation. The safety analysis set included all patients who received at least one dose, even if incomplete, of subasumstat. […] The overall response rate (ORR) was defined as the proportion of patients who achieved complete response and partial response (PR) during the study. The disease control rate (DCR) was defined as the proportion of patients who achieved […] as per RECIST v1.1 for solid tumors or Lugano classification for lymphomas. […] Progression-free survival was summarized descriptively using the Kaplan–Meier method.

## Cc1sc(C(=O)c2cncnc2N[C@@H]2C[C@H](COS(N)(=O)=O)[C@@H](O)C2)cc1[C@@H]1NCCc2ccc(Cl)cc21 [subasumstat]
Total (N = 109)
  TEAE: Constipation: 16 (14.7) n (%)
  TEAE: Decreased appetite: 31 (28.4) n (%)
  TEAE: Dehydration: 12 (11.0) n (%)
  TEAE: Diarrhea: 39 (35.8) n (%)
  TEAE: Dyspnea: 26 (23.9) n (%)
  TEAE: Fatigue: 51 (46.8) n (%)
  TEAE: Headache: 37 (33.9) n (%)
  TEAE: Hypophosphatemia: 11 (10.1) n (%)
  TEAE: Insomnia: 13 (11.9) n (%)
  TEAE: Nausea: 45 (41.3) n (%)
  TEAE: Peripheral edema: 17 (15.6) n (%)
  TEAE: Pleural effusion: 12 (11.0) n (%)
  TEAE: Pyrexia: 39 (35.8) n (%)
  TEAE: Stomatitis: 11 (10.1) n (%)
  TEAE: Vomiting: 29 (26.6) n (%)
  TEAEs: 105 (96.3) n (%)
  TEAEs leading to discontinuation: 12 (11.0) n (%)
  TEAEs leading to discontinuation related to subasumstat: 4 (3.7) n (%)
  TEAEs related to subasumstat: 87 (79.8) n (%)
Total (n = 109)
  Grade ≥3 subasumstat-related TEAE: Anemia: 4 (3.7) n (%)
  Grade ≥3 subasumstat-related TEAE: Aspartate aminotransferase increased: 2 (1.8) n (%)
  Grade ≥3 subasumstat-related TEAE: Hypokalemia: 2 (1.8) n (%)
  Grade ≥3 subasumstat-related TEAE: Lymphocyte count decreased: 4 (3.7) n (%)
  Grade ≥3 subasumstat-related TEAE: Muscular weakness: 2 (1.8) n (%)
  Grade ≥3 subasumstat-related TEAE: Neutropenia: 4 (3.7) n (%)
  Grade ≥3 subasumstat-related TEAE: Platelet count increased: 3 (2.8) n (%)
  Grade ≥3 subasumstat-related TEAE: Pneumonitis: 2 (1.8) n (%)
  Grade ≥3 subasumstat-related TEAE: Thrombocytopenia: 2 (1.8) n (%)
  Patients with at least one grade ≥3 subasumstat-related TEAE: 29 (26.6) n (%)
  Subasumstat-related TEAE: Anemia: 8 (7.3) n (%)
  Subasumstat-related TEAE: CRS: 12 (11.0) n (%)
  Subasumstat-related TEAE: Chills: 23 (21.1) n (%)
  Subasumstat-related TEAE: Decreased appetite: 13 (11.9) n (%)
  Subasumstat-related TEAE: Diarrhea: 21 (19.3) n (%)
  Subasumstat-related TEAE: Dyspnea: 6 (5.5) n (%)
  Subasumstat-related TEAE: Fatigue: 34 (31.2) n (%)
  Subasumstat-related TEAE: Headache: 26 (23.9) n (%)
  Subasumstat-related TEAE: Hypokalemia: 7 (6.4) n (%)
  Subasumstat-related TEAE: IRR: 6 (5.5) n (%)
  Subasumstat-related TEAE: Myalgia: 8 (7.3) n (%)
  Subasumstat-related TEAE: Nausea: 33 (30.3) n (%)
  Subasumstat-related TEAE: Pyrexia: 32 (29.4) n (%)
  Subasumstat-related TEAE: Vomiting: 14 (12.8) n (%)
All incidences, most nonserious
  Severity of CRS: grade 1 or 2
All patients (N = 109)
  Discontinuation of subasumstat due to TEAEs: 11%
  Grade ≥3 TEAE abdominal pain: 5.5%
  Grade ≥3 TEAE anemia: 12.8% and 13%
  Grade ≥3 TEAE hypokalemia: 6.4%
  Grade ≥3 TEAEs: 60.6%
  On-study deaths: 11.0%
  On-study deaths related to subasumstat: none
  Subasumstat-related TEAE fatigue: 31.2%
  Subasumstat-related TEAE nausea: 30.3%
  Subasumstat-related TEAE pyrexia: 29.4%
  Subasumstat-related grade ≥3 TEAEs: 26.6%
  Subasumstat-related grade ≥3 anemia: 3.7%
  Subasumstat-related grade ≥3 decreased lymphocyte blood cell count: 3.7%
  Subasumstat-related grade ≥3 decreased platelet count: 2.8%
  Subasumstat-related grade ≥3 neutropenia: 3.7%
  TEAE diarrhea: 36% and 35.8%
  TEAE fatigue: 47% and 46.8%
  TEAE headache: 33.9%
  TEAE nausea: 41% and 41.3%
  TEAE pyrexia: 36% and 35.8%
  TEAEs related to subasumstat: 79.8%
All patients (N = 109), 12 patients, all related to subasumstat
  CRS: 11%
All patients (N = 109), seven patients
  Infusion-related reactions (IRR): 6.4% and 6%
All seven patients with IRR
  Severity of IRR: grade 1 or 2
In vivo
  Dose from which CRS was observed: ≥ 60 mg
Of seven patients with IRR
  IRR deemed related to subasumstat: six
